# No end group written: not given here.
# Experiments:
# [1] = test system: Weissella viridescens NRRL B-1951; assay: W. viridescens culture absorbance (growth) with nisin; type: cell-based; parameters: key to Corrected ABS 610rs: A600 minus background absorbance taken just after inoculation; conditions: for 91516 ABS 610f: final absorbance, uncorrected
# Method: Purified nisin A and Z are commercially available and were acquired from Handary S. A. (Brussels Belgium). Certificates of analysis for each lot indicated purities of 95.2 and 99.6% for nisin A and Z, respectively.
# 100 g De-Man, Rogosa and Sharpe (MRS) media was prepared in a 500 mL Erlenmeyer to contain 5.5% solids in deionized water (18.2 MS2, Hydro Service and Supplies, Gaithersburg, Md.). The media was autoclaved (121° C. 15 min), cooled, and inoculated with 1 mL (0.5 mL culture+0.5 mL glycerol, 40%; frozen at −78° C.) of Weissella viridescens NRRL B-1951 (test strain). The culture was incubated at 31° C. overnight (15 Hr).
# The next day, stock solutions of either nisin A or Z were prepared in deionized water to contain 31.3 and 33.7 μg/g of each peptide.
# (§1) 100 g MRS media was prepared to contain 5.5% solids. Two sets (one set each for nisin A and nisin Z) of eight Hach-type tubes (Kimble Chase 45066-16100) were prepared. Within each set, in order was added 5.00, 4.95, 4.90, 4.75, 4.50, 4.00, 3.50 and 3.00 g MRS media. The tubes were sealed and autoclaved.
# (§2) To each tube was added, of the appropriate nisin stock, 0.00, 0.05, 0.10, 0.25, 0.50, 1.00, 1.50, and 2.00 g. Each tube was inoculated with 0.25 g of late-log W. viridescens NRRL B-1951 culture. The tubes were sealed and the absorbance at 600 nm was quickly measured (Hach DR900). The tubes were segregated by set and incubated at 31° C. overnight (15 Hr).
# Each tube was thoroughly mixed to suspend settled cells and the absorbance was measured again at 600 nm. The final absorbance values for each sample were corrected for their respective background (taken just after inoculation, scattered light from added cells). The corrected absorption values were a measure of W. viridescens growth. The corrected values were plotted against nisin concentration and minimum inhibiting concentration approximated via regression.
# [2] = test system: Weissella viridescens NRRL B-1951; assay: HPLC of culture supernatants: consumption of glucose and production of organic acids with nisin; type: cell-based; conditions: for acetic acid in the fermentation media: MRS media originally contained 7% acetate
# Method: as §1, §2
# Each tube was sampled (1.5 mL conical polypropylene centrifuge tubes) and centrifuged at 10 kRPM for 10 minutes to remove and suspended cells. The resulting supernatants were filtered (0.2 μm nylon), diluted to 0.5% solids, and analyzed by high pressure liquid chromatography (HPLC, Agilent 1100, refractive index detector and BioRad Ainex HPX-87H column) for consumption of glucose and production of organic acids. The following table illustrates the concentration of sugars such as glucose and production of organic acids during the incubation.
# Note that the MRS media originally contained 7% acetate; therefore 7% should be subtracted from the values for acetate in the above table to ascertain the amount of acetate generated during the assay.
substance,measurement,setting,value
"nisin Z (ITSISLCTPGCKTGALMGCNMKTATCNCSIHVSK; not fully specified (residues 2, 5, 33, bridges); also: lantibiotic (thioether rings, dehydrated residues not placed); UniProt P13068 24-57, looked up, variant H27N) [Purified nisin Z, commercially available, acquired from Handary S. A; purity 99.6%; bacteriocin peptide]",inhibition of bacterial growth,[1],can effectively inhibit
same,91516 ABS 610f,[1]; nisin Z 0.34 μg/g (tube Z2),1.618
same,91516 ABS 610f,[1]; nisin Z 0.77 μg/g (tube Z3),1.526
same,91516 ABS 610f,[1]; nisin Z 1.58 μg/g (tube Z4),1.296
same,91516 ABS 610f,[1]; nisin Z 3.19 μg/g (tube Z5),0.801
same,91516 ABS 610f,[1]; nisin Z 6.31 μg/g (tube Z6),0.426
same,91516 ABS 610f,[1]; nisin Z 9.54 μg/g (tube Z7),0.384
same,91516 ABS 610f,[1]; nisin Z 12.61 μg/g (tube Z8),0.386
same,Corrected ABS 610rs,[1]; nisin Z 0.34 μg/g (tube Z2),1.146
same,Corrected ABS 610rs,[1]; nisin Z 0.77 μg/g (tube Z3),1.062
same,Corrected ABS 610rs,[1]; nisin Z 1.58 μg/g (tube Z4),0.841
same,Corrected ABS 610rs,[1]; nisin Z 3.19 μg/g (tube Z5),0.359
same,Corrected ABS 610rs,[1]; nisin Z 6.31 μg/g (tube Z6),0.003
same,Corrected ABS 610rs,[1]; nisin Z 9.54 μg/g (tube Z7),0.001
same,Corrected ABS 610rs,[1]; nisin Z 12.61 μg/g (tube Z8),0.001
same,Maltotriose in the fermentation media,[2]; nisin Z 0.34 μg/g (tube Z2),0.282 %/brix
same,ethanol in the fermentation media,[2]; nisin Z 0.34 μg/g (tube Z2),0.057 %/brix
same,formic acid in the fermentation media,[2]; nisin Z 0.34 μg/g (tube Z2),0.303 %/brix
same,fructose in the fermentation media,[2]; nisin Z 0.34 μg/g (tube Z2),0.000 %/brix
same,glucose in the fermentation media,[2]; nisin Z 0.34 μg/g (tube Z2),22.988 %/brix
same,glycerol in the fermentation media,[2]; nisin Z 0.34 μg/g (tube Z2),0.343 %/brix
same,lactic acid in the fermentation media,[2]; nisin Z 0.34 μg/g (tube Z2),6.742 %/brix
same,maltose in the fermentation media,[2]; nisin Z 0.34 μg/g (tube Z2),0.722 %/brix
same,acetic acid in the fermentation media,[2]; nisin Z 0.34 μg/g (tube Z2),8.273 %/brix
same,Maltotriose in the fermentation media,[2]; nisin Z 1.58 μg/g (tube Z4),0.265 %/brix
same,ethanol in the fermentation media,[2]; nisin Z 1.58 μg/g (tube Z4),0.083 %/brix
same,formic acid in the fermentation media,[2]; nisin Z 1.58 μg/g (tube Z4),0.309 %/brix
same,fructose in the fermentation media,[2]; nisin Z 1.58 μg/g (tube Z4),0.000 %/brix
same,glucose in the fermentation media,[2]; nisin Z 1.58 μg/g (tube Z4),24.153 %/brix
same,glycerol in the fermentation media,[2]; nisin Z 1.58 μg/g (tube Z4),0.337 %/brix
same,lactic acid in the fermentation media,[2]; nisin Z 1.58 μg/g (tube Z4),5.081 %/brix
same,maltose in the fermentation media,[2]; nisin Z 1.58 μg/g (tube Z4),1.007 %/brix
same,acetic acid in the fermentation media,[2]; nisin Z 1.58 μg/g (tube Z4),8.247 %/brix
same,Maltotriose in the fermentation media,[2]; nisin Z 3.19 μg/g (tube Z5),0.311 %/brix
same,ethanol in the fermentation media,[2]; nisin Z 3.19 μg/g (tube Z5),0.067 %/brix
same,formic acid in the fermentation media,[2]; nisin Z 3.19 μg/g (tube Z5),0.281 %/brix
same,fructose in the fermentation media,[2]; nisin Z 3.19 μg/g (tube Z5),0.000 %/brix
same,glucose in the fermentation media,[2]; nisin Z 3.19 μg/g (tube Z5),24.698 %/brix
same,glycerol in the fermentation media,[2]; nisin Z 3.19 μg/g (tube Z5),0.321 %/brix
same,lactic acid in the fermentation media,[2]; nisin Z 3.19 μg/g (tube Z5),2.995 %/brix
same,maltose in the fermentation media,[2]; nisin Z 3.19 μg/g (tube Z5),0.750 %/brix
same,acetic acid in the fermentation media,[2]; nisin Z 3.19 μg/g (tube Z5),8.026 %/brix
same,Maltotriose in the fermentation media,[2]; nisin Z 6.31 μg/g (tube Z6),0.247 %/brix
same,ethanol in the fermentation media,[2]; nisin Z 6.31 μg/g (tube Z6),0.059 %/brix
same,formic acid in the fermentation media,[2]; nisin Z 6.31 μg/g (tube Z6),0.267 %/brix
same,fructose in the fermentation media,[2]; nisin Z 6.31 μg/g (tube Z6),0.000 %/brix
same,glucose in the fermentation media,[2]; nisin Z 6.31 μg/g (tube Z6),25.353 %/brix
same,glycerol in the fermentation media,[2]; nisin Z 6.31 μg/g (tube Z6),0.320 %/brix
same,lactic acid in the fermentation media,[2]; nisin Z 6.31 μg/g (tube Z6),1.351 %/brix
same,maltose in the fermentation media,[2]; nisin Z 6.31 μg/g (tube Z6),0.726 %/brix
same,acetic acid in the fermentation media,[2]; nisin Z 6.31 μg/g (tube Z6),7.969 %/brix
same,Maltotriose in the fermentation media,[2]; nisin Z 9.54 μg/g (tube Z7),0.291 %/brix
same,ethanol in the fermentation media,[2]; nisin Z 9.54 μg/g (tube Z7),0.065 %/brix
same,formic acid in the fermentation media,[2]; nisin Z 9.54 μg/g (tube Z7),0.263 %/brix
same,fructose in the fermentation media,[2]; nisin Z 9.54 μg/g (tube Z7),0.000 %/brix
same,glucose in the fermentation media,[2]; nisin Z 9.54 μg/g (tube Z7),25.501 %/brix
same,glycerol in the fermentation media,[2]; nisin Z 9.54 μg/g (tube Z7),0.335 %/brix
same,lactic acid in the fermentation media,[2]; nisin Z 9.54 μg/g (tube Z7),1.431 %/brix
same,maltose in the fermentation media,[2]; nisin Z 9.54 μg/g (tube Z7),0.895 %/brix
same,acetic acid in the fermentation media,[2]; nisin Z 9.54 μg/g (tube Z7),8.026 %/brix
same,Maltotriose in the fermentation media,[2]; nisin Z 12.61 μg/g (tube Z8),0.318 %/brix
same,ethanol in the fermentation media,[2]; nisin Z 12.61 μg/g (tube Z8),0.148 %/brix
same,formic acid in the fermentation media,[2]; nisin Z 12.61 μg/g (tube Z8),0.299 %/brix
same,fructose in the fermentation media,[2]; nisin Z 12.61 μg/g (tube Z8),0.000 %/brix
same,glucose in the fermentation media,[2]; nisin Z 12.61 μg/g (tube Z8),25.740 %/brix
same,glycerol in the fermentation media,[2]; nisin Z 12.61 μg/g (tube Z8),0.346 %/brix
same,lactic acid in the fermentation media,[2]; nisin Z 12.61 μg/g (tube Z8),1.652 %/brix
same,maltose in the fermentation media,[2]; nisin Z 12.61 μg/g (tube Z8),0.876 %/brix
same,acetic acid in the fermentation media,[2]; nisin Z 12.61 μg/g (tube Z8),8.261 %/brix

# From US11672817B2, “Maltosyl-Isomaltooligosaccharides” (ISOThrive Inc., priority 2016, dated 2023)
